Experimental findings from patent publication US20200046648A1, “POLYMERIC NANOPARTICLES COMPRISING SALINOMYCIN” (priority 2018, published 2020) are described below.

For one data set, the system named is CD44+/CD24low cells. The data set is described as follows: Flow cytometric identification of cancer stem cells from a TNBC patient. Particulars: TNBC patient tumor derived spheroid cultures; 72 hours; FACS. It counts as cell-based. The procedure:
Flow cytometric identification of cancer stem cells (CSCs) by CD24-PE & CD44-FITC antibody staining in triple negative breast cancer (TNBC) patient tumor derived cells cultured as spheroid cultures and then treated with the indicated drugs for72h. Following 72 hours of treatment of the mammospheres, cells were dissociated with Acutase treatment. Following washing, cells were stained with CD24-PE & CD44-FITC antibody, washed and analyzed by FACS. The subpopulation of CD44+/CD24-low cells were gated and quantified.
For orientation: A flow cytometer gives signals particle by particle.

Data set [1] can be described thus: Comparative toxicity in wild-type mice. It counts as in vivo. How it is done:
The effect of nanoparticles in mitigating the toxicity of salinomycin was examined in wild-type mice. Different doses of salinomycin alone (5, 7.5, 10, 12.5 and 15 mg/kg) or salinomycin-nanoparticles (SAL-NP) (5, 7.5, 10, 12.5 and 15 mg/kg) were injected into wild-type mice. Three mice were used in each group of salinomycin alone and salinomycin-NP groups, body weights, food and water uptake were measured every day for 22 days.

Data set [2] in a line: Preliminary toxicity study, histopathology by H & E staining. It counts as in vivo, CD2 male mice. The procedure:
(§1) A study was conducted in wild-type CD2 male mice to evaluate and compare the effects of salinomycin (SAL) at three different concentrations and compared to a formulation of SAL in biodegradable tetra-block polymeric nanoparticles.
(§2) MICE 20-25 g male CD2 mice between the ages 6 to 8 weeks from Taconic were used. The animals were acclimatized for five days before initiating the study.
(§3) Animals were injected intravenously either with 5.0 mg/kg, 8.5 mg/kg, or 12.5 mg/kg of SAL or SAL-NPs once, according to Table 1 below. Control animals were treated with PBS.
(§4) Tolerability of the drug by animals was measured via clinical, weight and behavioral changes. The compounds were administered once on day 1. Seven days following administration, all animals were euthanized and blood was collected for a complete blood chemistry and hematology analysis (see Table 2 and 3 below). Post mortem was conducted to examine all of the animals. Different organs (brain, heart, lung, liver, spleen, stomach, intestine, kidney, and skin) were also isolated for histo-pathological evaluation by H & E staining.
All the animals did well in the study, except the Salinomycin 12.5 mg/kg group. The histopathological studies were conducted on brain, heart, lung, liver, spleen, stomach, intestine, kidney, muscles, and skin tissues by H & E staining. […]

The nature of data set [3]: Preliminary toxicity study, post mortem observations. It counts as in vivo, CD2 male mice. Particulars: day 7. The procedure:
as §1, §2, §3, §4
On day 7 of the study, a post mortem inspection was conducted on each and every animal. […] There was slight enlargement observed on the fascia around the testis.

“Also recorded” adds a separate entry of the source.

As for `CC(=O)O[C@H]1C(=O)[C@@]2(C)[C@H]([C@H](OC(=O)c3ccccc3)[C@]3(O)C[C@H](OC(=O)[C@H](O)[C@@H](NC(=O)c4ccccc4)c4ccccc4)C(C)=C1C3(C)C)[C@]1(OC(C)=O)CO[C@@H]1C[C@@H]2O` [Paclitaxel], in the data set with CD44+/CD24low cells, the “effect on CD44+/CD24low cells” value is listed as “not much effect”.
With `CC[C@@H](C(=O)[C@@H](C)[C@@H](O)[C@H](C)[C@@H]1O[C@@H]([C@@H](CC)C(=O)O)CC[C@@H]1C)[C@H]1O[C@]2(C=C[C@@H](O)[C@]3(CC[C@@](C)([C@H]4CC[C@](O)(CC)[C@H](C)O4)O3)O2)[C@H](C)C[C@@H]1C` [SAL, salinomycin], the survival result in data set [1] (10 mg/kg) is “five”; in data set [1] (12.5 mg/kg), “three”. Moreover, the “survival (day of the study)” value in data set [1] (15 mg/kg) was “died after day 3”. Moreover, the “organ toxicity (conclusion)” value in data set [2] (5, 8.5, 12.5 mg/kg i.v. once, day 7) is “toxicity to the liver, kidney, testis, and epididymis”. Besides, the “microscopical examination of all the tissues” value in data set [2] (mouse, in vivo) is “changes were observed in the kidney, liver, testis and epididymis”. Moreover, the Post-mortem findings result was “did not show any observable changes; also recorded: No Changes observed” in data set [3] (5 mg/kg i.v. once); “slightly reddish and slightly enlarged testis; also recorded: testis with redness; also recorded: No Changes observed” in data set [3] (8.5 mg/kg i.v. once); “reddening of the fascia surrounding testis; also recorded: Epidydimus enalrged” in data set [3] (12.5 mg/kg i.v. once).
